“Also recorded” adds a separate entry of the source.
What was measured:
[1] = tested on: citric acid induced cough; details: guinea pigs; Lalloo et al., Trevisani et al.; cited from earlier work
rat spinal tissues = details: only after inflammation or activation of protein kinase C; Pain 2003, 105, 133-141; cited from earlier work
[2] = tested on: citric acid-induced cough; assay: Citric acid-induced cough in guinea pigs; details: for inhibition of the cough response to citric acid inhalation: aerosolized 1 mM inhaled for 10 min prior to citric acid 0.25 M; for motor activity (behavioral effect, not quantified): guinea pigs, 1 mM aerosolized for 10 min
Protocol: After the period of acclimatisation to laboratory conditions, animals were individually placed in a transparent perspex box (20×10×10 cm, Vetrotecnica, Italy) ventilated with a constant airflow of 400 ml/min. The tussive agents (citric acid 0.25 M) was nebulised via a mini-ultrasonic nebuliser (Ugo Basile, Italy). […] The appearance of cough was detected by means of a tie-clip microphone (Sony, Japan) and confirmed by the characteristic posture of the animal. The cough sounds were recorded and digitally stored. The number of elicited cough efforts was subsequently counted by a blind observer.
All experiments were carried out at the same time of day. To elicit cough, guinea pigs were exposed to aerosols of citric acid for 10 min.
(§1) Values were presented as mean±standard error of the mean (SEM). Comparisons between groups were made by one way analysis of variance (ANOVA) and the Dunnett's test for multiple comparisons. A p value of <0.05 was considered significant.

human small bronchi [3] = assay: Human bronchi contraction produced by electric field stimulation (EFS), organ bath; details: 0.1 mM and 1 mM; EFS 30 Hz, 0.5 ms, 10 sec, 70V; with L-NAME, indomethacin, propranolol
Text: In a separate set of experiments, human bronchi were electrically stimulated (30 Hz, 0.5 ms pulse width, duration 10 sec, 70V).

human small bronchi [4] = assay: Human bronchi contraction induced by acetylcholine, organ bath; details: 0.1 mM and 1 mM, 15 min before the stimulus; ACh 100 nM-10 mM
Protocol: The human samples were taken from 10 different patients who were undergoing lung resection for a solitary peripheral carcinoma. […] The bronchial rings (from 3 to 11 from each sample) were taken from the lobar or segmental bronchus of the lobe obtained at surgery, away from the tumor site.
Tissues were fixed to the base of the organ bath and connected to an isometric force transducer. […] During the initial stabilization period (90 min) tissues were washed six times. A challenge with acetyl choline (Ach) (1 mM) was performed and after washing, the tissue was allowed to equilibrate for an additional 90 min. To prevent peptide degradation phosphoramidon (1 μM) was added to the bath. Viability of the tissues was tested with the response to ACh (1 mM).
Experiments in human bronchi were performed in the presence of L-NAME (100 μM) to block the production of nitric oxide, indomethacin (5 μM) to block the production of prostanoids and propranolol (1 μM) to block β-adrenoceptors.
as §1

SMILES | effect on citric acid induced cough [1] | release of substance P and CGRP (rat spinal tissues) | inhibition of the cough response to citric acid inhalation [2] | motor activity (behavioral effect, not quantified) [2] | effect on the contractile response produced by EFS (human small bronchi [3]) | inhibition of the contraction caused by acetylcholine (human small bronchi [4])
C=C(C)[C@]12C[C@@H](C)[C@@]34O[C@](Cc5ccccc5)(O[C@@H]1[C@@H]3C=C(COC(=O)Cc1cc(I)c(O)c(OC)c1)C[C@]1(O)C(=O)C(C)=C[C@@H]41)O2 [iodo-resiniferatoxin] | inhibited this response |  |  |  |  | 
CC(C)C[C@H](CN)CC(=O)O [pregabalin, (S)-(+)-4-amino-3-(2-methylpropyl)butanoic acid] |  | reduce release of substance P and CGRP |  |  |  | 
NC[C@]1(CC(=O)O)C[C@H]2CC[C@H]2C1 [Compound A, (1α, 3α,5α)(3-amino-methyl-bicyclo[3.2.0]hept-3-yl)-acetic acid] |  |  | significant inhibition | some degree of reduction in motor activity | significant (p<0.05) inhibitory effect | did not produce any significant inhibition; also recorded: Absence of effect
NCC1(CC(=O)O)CCCCC1 [gabapentin, 1-(aminomethyl)-cyclohexylacetic acid] |  | reduce release of substance P and CGRP | significant inhibition | some degree of reduction in motor activity | significant (p<0.05) inhibitory effect | did not produce any significant inhibition; also recorded: Absence of effect
Oc1cc2c(cc1O)CN(C(=S)NCCc1ccc(Cl)cc1)CCC2 [capsazepine] | inhibited this response |  |  |  |  | 
